Experimental data reported in US20120190748A1, “GREATER UTILITY WITH THYROID HORMONE” (priority 2009, published 2012).

Legend:
[1] = Case report: oral thyroid hormone regimens in one subject (Sam) after radioactive iodine ablation for Grave's disease; format: in vivo, human
Procedure: The subject (Sam), of this case report, was treated with radioactive iodine ablation with a relatively low dose. Prior to diagnosis of Grave's disease, Sam was never known to have free T4 levels above median, and had always maintained the same weight +/−3 lbs beyond the age of 18.
Over the next several years, attempting to ameliorate symptoms, Sam attempted to treat the hypothyroid state with the following means: 0.175 mg of T4 OD, resulting in palpitations, anxiety, stiffness, chest tightness, insomnia, sclerotic skin changes, sweating and heat intolerance within 6 months of initiating therapy. The severity of the symptoms required Sam to return to return to 0.15 mg OD of T4 within 1 week of experiencing the symptoms—remaining at that dose for 6 weeks. […] This was followed by an attempt to treat with: 0.125 mg of T4 with 0.005 mg of T3 OD, resulting in palpitations, anxiety, stiffness, chest tightness, insomnia, sclerotic skin changes, sweating and heat intolerance within 3 weeks of initiating therapy. The severity of the symptoms required Sam to return to 0.15 mg OD of T4 within 2 days of experiencing these symptoms—remaining at that dose for 6 weeks with resolution of the adrenergic symptoms. This was followed by an attempt to treat with: 0.035 mg of T3 OD, resulting in palpitations, anxiety, stiffness, chest tightness, insomnia, sclerotic skin changes, sweating and heat intolerance within 1 week of initiating therapy. The severity of the symptoms required Sam to return to 0.15 mg OD of T4 within 1 day of experiencing these symptoms—remaining at that dose for 6 weeks with resolution of the adrenergic symptoms. This was followed by an attempt to treat with: 0.005 mg of T3 q3:25hours, resulting in palpitations, anxiety, stiffness, chest tightness, insomnia, sclerotic skin changes, sweating and heat intolerance within 1 week of initiating therapy. The severity of the symptoms required Sam to return to 0.15 mg OD of T4 within 1 day of experiencing symptoms—remaining at that dose for many years, with continued nasal congestion and dysphoria.
Then the symptoms all stopped. […] Sam continued this dose for several months. […] Dysphoria and nasal congestion were improved over that which was present with once daily dosing, but still remained present, so Sam attempted to treat with the following: 0.075 mg of T4 q6hours, resulting in dysphoria, nasal congestion, and mild to moderate palpitations, anxiety, stiffness, chest tightness, insomnia, sweating and heat intolerance for 2 days, then the symptoms stopped, until Sam changed treatment to: 0.05 mg of T4 q4hours, resulting in dysphoria, nasal congestion, and mild palpitations, anxiety, stiffness, chest tightness, insomnia, sweating and heat intolerance for 2 days, then the symptoms stopped, with an even greater sense of well being than had been experienced on previous treatment regimes, but Sam further increased the dose to: 0.05 mg of T4 q3hrous, resulting in dysphoria, nasal congestion, and mild palpitations, anxiety, stiffness, chest tightness, insomnia, sclerotic skin changes, sweating and heat intolerance for 3 weeks, then the symptoms stopped. Sam remained on this dose for a period of approximately 3 years. […] Weight loss of 40 lbs (with a resulting body fat of 26% by electrical impedance, and lean mass of 100 lbs.) over the first 15 months occurred followed by weight gain of 15 lbs over the next 15 months (with a resulting body fat of 28% by electrical impedance, and lean mass of 108 lbs.). A reduced incidence and duration of common colds was noted, while at steady state over the 3 year period. On one occasion, when the expiry date of T4 administered was several months nearer to the time of administration, than that of T4 typically administered by Sam, within one day, onset of dysphoria, nasal congestion, palpitations, insomnia, anorexia, night sweats, cold sweats, cold intolerance, weakness and the sensation of weight loss occurred; the symptoms resolved within three days. […]

[2] = test system: Thyroid Binding Globulin, Transthyretin and Albumin; conditions: cited from earlier work; for bound within the blood stream (protein binding): bound by Thyroid Binding Globulin, Transthyretin and Albumin
[3] = extended due to protein binding; human body; cited from earlier work
[4] = T3 compared with T4; cited from earlier work
[5] = 0.05 mg of T4 q3hrous, after the first 15 months
[6] = 0.05 mg of T4 q3hrous, after the next 15 months
[7] = 0.05 mg of T4 q3hrous, at 2.7 years
[8] = dose reduced to 0.05 mg of T4 q4hours, within the first 2 weeks

N[C@@H](Cc1cc(I)c(Oc2ccc(O)c(I)c2)c(I)c1)C(=O)O [T3, 3,5,3′ triiodo-L-thyronine]
time to palpitations, anxiety, stiffness, chest tightness, insomnia, sclerotic skin changes, sweating and heat intolerance after initiating therapy ([1]; 0.005 mg of T3 q3:25hours): ≤ 1 week
time to palpitations, anxiety, stiffness, chest tightness, insomnia, sclerotic skin changes, sweating and heat intolerance after initiating therapy ([1]; 0.035 mg of T3 OD): ≤ 1 week
bound within the blood stream (protein binding) [2]: 99.6%
biological half-life [3]: approximately 1 days
stability (iodine atoms removed by hydrolysis) [4]: more unstable

N[C@@H](Cc1cc(I)c(Oc2cc(I)c(O)c(I)c2)c(I)c1)C(=O)O [T4, 3,5,3′,5′ tetraiodo-L-thyronine]
duration of dysphoria, nasal congestion and mild adrenergic symptoms ([1]; 0.05 mg of T4 q3hrous): 3 weeks
body fat by electrical impedance [1, 5]: 26%
lean mass [1, 5]: 100 lbs
body fat by electrical impedance [1, 6]: 28%
lean mass [1, 6]: 108 lbs
Free T4 concentration, gradual decrease ([1]; 0.05 mg of T4 q3hrous, approximately 3 years, remained far above normal): 15%
EKG heart rate (normal sinus rhythm) [1, 7]: 71 beats per minute
blood glucose [1, 7]: normal blood glucose
lipid profile [1, 7]: exceptional lipid profile
serum calcium [1, 7]: slightly above the upper limit of normal
weight loss ([1]; 0.05 mg of T4 q3hrous, over the first 15 months): 40 lbs
weight gain ([1]; 0.05 mg of T4 q3hrous, over the next 15 months): 15 lbs
duration of dysphoria, nasal congestion and mild adrenergic symptoms ([1]; 0.05 mg of T4 q4hours (first time)): 2 days
duration of dysphoria, nasal congestion and mild to moderate adrenergic symptoms ([1]; 0.075 mg of T4 q6hours): 2 days
weight loss ([1]; 0.075 mg of T4 q8hours): 2-3 pounds
duration of dysphoria, nasal congestion and mild to moderate adrenergic symptoms ([1]; 0.088 mg of T4 q8hours): three weeks
effect on previous symptoms (weight gain, body fat increase, insomnia, anorexia, night sweats, cold intolerance, weakness etc.) ([1]; 0.088 mg of T4 q8hours): resolution of the previous symptoms within one week
T4 concentrations ([1]; 0.088 mg of T4 q8hours, continued for several months): higher than normal range
duration of dysphoria, nasal congestion and mild to moderate adrenergic symptoms ([1]; 0.1 mg of T4 q8hours): three weeks
weight gain ([1]; 0.1 mg of T4 q8hours): 2-3 pounds
change in weight (mean, persistent) ([1]; 0.125 mg OD of T4, following several months of treatment): 5 lbs
time to palpitations, anxiety, stiffness, chest tightness, insomnia, sclerotic skin changes, sweating and heat intolerance after initiating therapy ([1]; 0.175 mg of T4 OD): ≤ 6 months
free T4 ([1]; 0.175 mg of T4 OD, in the 6th month): free T4 rose
free T4 levels ([1]; T4 titrated to doses ranging from 0.1 mg OD to 0.25 mg OD): 28 pmol/L
duration of dysphoria, nasal congestion, palpitations, insomnia, anorexia, night sweats, cold intolerance, weakness etc. ([1]; dose reduced to 0.05 mg of T4 q4hours): 8 weeks
free T4 rise [1, 8]: 22%
weight loss [1, 8]: 2-3 lbs
bound more tightly than T3 ([2]; T4 relative to T3): roughly 10 times
bound within the blood stream (protein binding) [2]: 99.96%
